Source: ChEMBL document CHEMBL4673352, “Discovery of AZD4573, a Potent and Selective Inhibitor of CDK9 That Enables Short Duration of Target Engagement for the Treatment of Hematological Malignancies” (J Med Chem, 2020)
Activity calls are given as the source filed them. No cut-off for these calls is given here.

Legend:
[1] = Volume of distribution at steady state in Beagle dog at 5.2 umol/kg, iv administered as 0.25 hrs formulated as solution in 5% DMSO; type: ADME, organism-based, Canis lupus familiaris; conditions: in vivo, dose 5.2 µmol/kg, read-out: Vdss
[2] = Drug metabolism in human liver microsome assessed as (1S,3R)-3-acetamido-N-(5-chloro-4-(7-hydroxy-4,5,6,7-tetrahydropyrazolo[1,5-a]pyridin-3-yl)pyridin-2-yl)cyclohexanecarboxamide formation at 10 uM measured after 1 hr in presence of NADPH by LC-UV-MS analysis; type: ADME; conditions: microsomes
[3] = Drug metabolism in human hepatocytes assessed as (1S,3R)-3-acetamido-N-(5-chloro-4-(5-(4-hydroxybutyl)-1H-pyrazol-4-yl)pyridin-2-yl)cyclohexanecarboxamide metabolite formation; type: ADME, cell-based, Hepatocyte
[4] = Drug metabolism in human liver microsomes assessed as 3-(4-(2-((1S,3R)-3-acetamidocyclohexanecarboxamido)-5-fluoropyridin-4-yl)-1H-pyrazol-5-yl)-2,2-dimethylpropanoic acid formation at 10 uM measured after 1 hr in presence of NADPH by LC-UV-MS analysis; type: ADME, Microsome
[5] = Drug metabolism in human hepatocytes assessed as (1S,3R)-3-acetamido-N-(5-fluoro-4-(6-hydroxy-5,5-dimethyl-5,6-dihydro-4H-pyrrolo[1,2-b]pyrazol-3-yl)pyridin-2-yl)cyclohexanecarboxamide metabolite formation; type: ADME, cell-based, Hepatocyte
CDK9/cyclin T1 = CDK9/cyclin T1 (Homo sapiens, UniProt O60563+P50750); test: Binding affinity to human CDK9/CyclinT assessed as dissociation rate constant by surface plasmon resonance analysis; type: protein-complex assay
CDK9/cyclin T1, sequence (O60563 whole entry): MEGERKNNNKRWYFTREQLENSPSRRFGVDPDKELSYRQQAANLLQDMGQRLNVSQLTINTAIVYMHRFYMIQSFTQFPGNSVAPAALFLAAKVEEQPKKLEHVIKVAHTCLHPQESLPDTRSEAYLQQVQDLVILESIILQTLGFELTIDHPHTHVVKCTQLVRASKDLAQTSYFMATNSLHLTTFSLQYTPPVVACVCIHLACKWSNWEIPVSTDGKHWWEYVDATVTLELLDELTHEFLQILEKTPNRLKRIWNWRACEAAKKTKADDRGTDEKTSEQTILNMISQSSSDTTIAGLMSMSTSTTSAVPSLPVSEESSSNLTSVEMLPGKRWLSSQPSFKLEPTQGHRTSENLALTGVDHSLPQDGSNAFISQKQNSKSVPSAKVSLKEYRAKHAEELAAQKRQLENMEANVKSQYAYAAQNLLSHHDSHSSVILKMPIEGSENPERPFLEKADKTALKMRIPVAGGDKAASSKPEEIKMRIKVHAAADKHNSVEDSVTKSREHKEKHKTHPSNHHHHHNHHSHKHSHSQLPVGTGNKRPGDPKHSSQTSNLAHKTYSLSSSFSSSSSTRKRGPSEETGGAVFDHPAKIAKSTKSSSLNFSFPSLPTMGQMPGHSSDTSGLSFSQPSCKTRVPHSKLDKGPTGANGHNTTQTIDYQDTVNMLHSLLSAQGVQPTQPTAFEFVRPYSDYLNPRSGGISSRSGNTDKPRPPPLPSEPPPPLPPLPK
CDK9/cyclin T1, sequence (P50750 whole entry): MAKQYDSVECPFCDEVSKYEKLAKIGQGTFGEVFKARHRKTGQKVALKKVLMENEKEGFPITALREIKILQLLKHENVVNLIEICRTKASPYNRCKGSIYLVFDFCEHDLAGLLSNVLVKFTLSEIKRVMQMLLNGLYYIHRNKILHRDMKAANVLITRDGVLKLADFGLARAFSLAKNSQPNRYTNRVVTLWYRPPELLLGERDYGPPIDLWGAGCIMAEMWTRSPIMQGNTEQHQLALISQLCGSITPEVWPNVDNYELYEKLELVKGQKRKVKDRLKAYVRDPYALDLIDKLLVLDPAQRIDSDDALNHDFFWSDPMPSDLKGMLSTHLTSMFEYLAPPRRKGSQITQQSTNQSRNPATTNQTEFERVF

[6] = Drug metabolism in human liver microsomes assessed as (1S,3R)-3-acetamido-N-(5-fluoro-4-(6-hydroxy-5,5-dimethyl-5,6-dihydro-4H-pyrrolo[1,2-b]pyrazol-3-yl)pyridin-2-yl)cyclohexanecarboxamide formation at 10 uM measured after 1 hr in presence of NADPH by LC-UV-MS analysis; type: ADME, Microsome
[7] = Clearance in Beagle dog plasma at […], iv administered as 0.25 hrs infusion; type: ADME, organism-based, Canis lupus familiaris; conditions: dose 0.24 µmol/kg
[8] = molecular target: Cyclin-dependent kinase 7/ cyclin H (Homo sapiens) (UniProt P51946+P50613); test: Inhibition of human recombinant full-length CDK7/CyclinH using peptide as substrate incubated for 40 mins in presence of [gamma-33P]ATP at 1 uM by scintillation counting method relative to control; type: protein-complex assay
[9] = Drug metabolism in human hepatocytes assessed as (1S,3R)-3-acetamido-N-(5-chloro-4-(6-hydroxy-5,5-dimethyl-5,6-dihydro-4H-pyrrolo[1,2-b]pyrazol-3-yl)pyridin-2-yl)cyclohexanecarboxamide metabolite formation; type: ADME, cell-based, Hepatocyte
[10] = molecular target: Glycogen synthase kinase-3 alpha (Homo sapiens, UniProt P49840); test: Inhibition of GSK3alpha (unknown origin) in presence of 5 mM ATP
Glycogen synthase kinase-3 alpha, sequence (P49840 whole entry): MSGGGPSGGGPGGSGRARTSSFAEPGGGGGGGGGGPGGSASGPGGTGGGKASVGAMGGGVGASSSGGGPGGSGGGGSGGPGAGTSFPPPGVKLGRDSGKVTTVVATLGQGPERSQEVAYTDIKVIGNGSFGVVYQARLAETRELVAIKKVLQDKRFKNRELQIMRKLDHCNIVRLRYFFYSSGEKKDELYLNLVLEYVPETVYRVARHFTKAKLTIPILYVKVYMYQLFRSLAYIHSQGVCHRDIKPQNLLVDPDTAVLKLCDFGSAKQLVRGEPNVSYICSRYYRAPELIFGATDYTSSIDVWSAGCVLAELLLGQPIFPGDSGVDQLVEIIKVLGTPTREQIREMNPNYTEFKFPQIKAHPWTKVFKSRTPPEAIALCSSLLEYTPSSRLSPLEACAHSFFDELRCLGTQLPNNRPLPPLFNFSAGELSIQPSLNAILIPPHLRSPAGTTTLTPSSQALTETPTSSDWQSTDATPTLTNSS

[11] = molecular target: Mitogen-activated protein kinase 8 (Homo sapiens, UniProt P45983); test: Inhibition of JNK1 (unknown origin) in presence of 5 mM ATP
Mitogen-activated protein kinase 8, sequence (P45983 whole entry): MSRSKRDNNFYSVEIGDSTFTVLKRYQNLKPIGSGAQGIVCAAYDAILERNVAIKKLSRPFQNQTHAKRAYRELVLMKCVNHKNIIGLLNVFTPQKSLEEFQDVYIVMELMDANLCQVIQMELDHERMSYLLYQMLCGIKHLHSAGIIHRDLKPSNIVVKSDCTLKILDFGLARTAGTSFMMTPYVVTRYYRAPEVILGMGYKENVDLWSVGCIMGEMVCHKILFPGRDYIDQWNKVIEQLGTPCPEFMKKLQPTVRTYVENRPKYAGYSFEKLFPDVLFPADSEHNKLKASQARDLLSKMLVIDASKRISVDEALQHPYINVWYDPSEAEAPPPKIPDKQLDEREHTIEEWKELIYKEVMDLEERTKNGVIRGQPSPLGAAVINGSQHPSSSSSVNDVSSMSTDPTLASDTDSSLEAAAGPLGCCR

[12] = Volume of distribution at steady state in cynomolgus monkey at 0.46 umol/kg, iv administered over 0.25 hrs formulated as solution in DMA/PEG400/Tween80; type: ADME, organism-based, Macaca fascicularis; conditions: in vivo, dose 0.46 µmol/kg, read-out: Vdss
[13] = molecular target: T1, Dual specificity tyrosine-phosphorylation-regulated kinase 2 (Homo sapiens) (UniProt Q92630); test: Inhibition of human recombinant full length N-terminal GST-tagged DYRK2 expressed in Escherichia coli at 0.1 uM incubated for 60 mins by TR-FRET based LanthaScreen Eu kinase binding assay relative to control
T1 sequence (whole entry): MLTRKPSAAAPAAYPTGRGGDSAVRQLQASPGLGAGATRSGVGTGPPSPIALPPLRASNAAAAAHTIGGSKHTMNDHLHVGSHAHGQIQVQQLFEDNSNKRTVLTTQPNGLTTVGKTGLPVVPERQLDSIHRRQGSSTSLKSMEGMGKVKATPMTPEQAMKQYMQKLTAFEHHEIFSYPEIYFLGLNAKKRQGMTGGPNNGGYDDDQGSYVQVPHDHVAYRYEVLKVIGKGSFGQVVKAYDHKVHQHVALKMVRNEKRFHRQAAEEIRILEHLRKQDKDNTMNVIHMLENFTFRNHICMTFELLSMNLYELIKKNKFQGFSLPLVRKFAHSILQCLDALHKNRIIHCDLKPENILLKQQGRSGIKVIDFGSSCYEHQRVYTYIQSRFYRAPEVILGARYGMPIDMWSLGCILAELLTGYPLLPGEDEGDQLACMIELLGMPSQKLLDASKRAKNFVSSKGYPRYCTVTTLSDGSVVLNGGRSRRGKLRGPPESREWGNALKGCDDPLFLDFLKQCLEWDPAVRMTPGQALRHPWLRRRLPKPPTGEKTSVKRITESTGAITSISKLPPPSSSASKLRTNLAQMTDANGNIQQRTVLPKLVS

[14] = Drug metabolism in human liver microsomes assessed as (1S,3R)-3-acetamido-N-(5-chloro-4-(5-(3-hydroxy-2,2-dimethylpropyl)-1H-pyrazol-4-yl)pyridin-2-yl)cyclohexanecarboxamide formation at 10 uM measured after 1 hr in presence of NADPH by LC-UV-MS analysis; type: ADME, Microsome
[15] = molecular target: Mitogen-activated protein kinase kinase kinase 9 (Homo sapiens) (UniProt P80192); test: Inhibition of human recombinant MAP3K9 using casein as substrate at 1 uM incubated for 40 mins in presence of [gamma32P]-ATP by scintillation counting method relative to control
Mitogen-activated protein kinase kinase kinase 9 (Homo sapiens), sequence (P80192 whole entry, looked up): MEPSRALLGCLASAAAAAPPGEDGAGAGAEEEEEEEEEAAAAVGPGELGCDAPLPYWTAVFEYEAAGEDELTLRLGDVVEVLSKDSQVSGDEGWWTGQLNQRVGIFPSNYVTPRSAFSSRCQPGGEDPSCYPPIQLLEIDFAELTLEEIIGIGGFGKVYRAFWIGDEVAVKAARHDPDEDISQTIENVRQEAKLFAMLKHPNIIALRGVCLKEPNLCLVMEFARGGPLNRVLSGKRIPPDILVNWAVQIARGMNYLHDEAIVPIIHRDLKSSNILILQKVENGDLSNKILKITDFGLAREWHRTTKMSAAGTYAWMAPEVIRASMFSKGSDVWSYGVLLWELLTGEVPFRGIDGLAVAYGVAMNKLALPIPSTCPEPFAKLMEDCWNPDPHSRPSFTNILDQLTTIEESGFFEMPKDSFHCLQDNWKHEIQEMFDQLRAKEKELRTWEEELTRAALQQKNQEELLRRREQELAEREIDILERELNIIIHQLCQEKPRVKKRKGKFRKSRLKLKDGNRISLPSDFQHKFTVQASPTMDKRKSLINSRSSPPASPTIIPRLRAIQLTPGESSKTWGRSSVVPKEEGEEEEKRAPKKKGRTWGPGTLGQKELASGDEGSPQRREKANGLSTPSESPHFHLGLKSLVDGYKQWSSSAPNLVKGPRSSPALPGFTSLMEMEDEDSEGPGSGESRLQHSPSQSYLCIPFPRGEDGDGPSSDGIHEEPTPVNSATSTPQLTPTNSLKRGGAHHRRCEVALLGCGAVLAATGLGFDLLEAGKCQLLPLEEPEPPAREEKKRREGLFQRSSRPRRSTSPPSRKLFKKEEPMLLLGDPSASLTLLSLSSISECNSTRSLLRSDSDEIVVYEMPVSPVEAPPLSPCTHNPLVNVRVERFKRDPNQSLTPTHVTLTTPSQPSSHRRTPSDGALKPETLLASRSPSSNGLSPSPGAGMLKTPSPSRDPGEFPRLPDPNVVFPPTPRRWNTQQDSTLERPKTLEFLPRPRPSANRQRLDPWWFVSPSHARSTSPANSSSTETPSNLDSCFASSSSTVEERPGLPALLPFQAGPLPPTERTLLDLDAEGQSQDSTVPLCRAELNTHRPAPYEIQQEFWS

[16] = molecular target: Cyclin-dependent kinase 9 (Mus musculus) (UniProt Q99J95); test: In-vivo inhibition of CDK9 in mouse xenografted with human MV4-11 cells assessed as reduction in RNA Polymerase 2 CTD phosphorylation at Ser2 residues at 5 to 15 mg/kg, ip BID administered at 2 hrs dose interval with 2 days on and 5 days off dosing schedule by Western blot analysis; type: functional, organism-based; conditions: dose 5-15 mg/kg
Cyclin-dependent kinase 9 (Mus musculus), sequence (Q99J95 whole entry): as the sequence (P50750 whole entry) above, with S17T, R37K, K40Q, N258K, Y262F counted along it

MV4-11 = test: Antitumor activity against human MV4-11 cells xenografted in CB17 SCID mouse assessed as tumor regression at 15 mg/kg, ip BID administered at 2 hrs dosing interval with 2 days on and 5 days off dosing schedule observed for 125 days; type: functional; conditions: time 125 day
[17] = molecular target: Dual specificity tyrosine-phosphorylation-regulated kinase 1A (Homo sapiens) (UniProt Q13627); test: Inhibition of human recombinant full length GST-tagged DYRK1A expressed in baculovirus infected cells at 0.1 uM incubated for 60 mins by TR-FRET based LanthaScreen Eu kinase binding assay relative to control
[18] = molecular target: Mitogen-activated protein kinase kinase kinase kinase 4 (Homo sapiens) (UniProt O95819); test: Inhibition of recombinant human GST-tagged MAP4K4 catalytic domain expressed in baculovirus expression system at 1 uM by Lanthascreen assay relative to control; conditions: time 60.0 min
Mitogen-activated protein kinase kinase kinase kinase 4 (Homo sapiens), sequence (O95819 2-1239 limits assumed): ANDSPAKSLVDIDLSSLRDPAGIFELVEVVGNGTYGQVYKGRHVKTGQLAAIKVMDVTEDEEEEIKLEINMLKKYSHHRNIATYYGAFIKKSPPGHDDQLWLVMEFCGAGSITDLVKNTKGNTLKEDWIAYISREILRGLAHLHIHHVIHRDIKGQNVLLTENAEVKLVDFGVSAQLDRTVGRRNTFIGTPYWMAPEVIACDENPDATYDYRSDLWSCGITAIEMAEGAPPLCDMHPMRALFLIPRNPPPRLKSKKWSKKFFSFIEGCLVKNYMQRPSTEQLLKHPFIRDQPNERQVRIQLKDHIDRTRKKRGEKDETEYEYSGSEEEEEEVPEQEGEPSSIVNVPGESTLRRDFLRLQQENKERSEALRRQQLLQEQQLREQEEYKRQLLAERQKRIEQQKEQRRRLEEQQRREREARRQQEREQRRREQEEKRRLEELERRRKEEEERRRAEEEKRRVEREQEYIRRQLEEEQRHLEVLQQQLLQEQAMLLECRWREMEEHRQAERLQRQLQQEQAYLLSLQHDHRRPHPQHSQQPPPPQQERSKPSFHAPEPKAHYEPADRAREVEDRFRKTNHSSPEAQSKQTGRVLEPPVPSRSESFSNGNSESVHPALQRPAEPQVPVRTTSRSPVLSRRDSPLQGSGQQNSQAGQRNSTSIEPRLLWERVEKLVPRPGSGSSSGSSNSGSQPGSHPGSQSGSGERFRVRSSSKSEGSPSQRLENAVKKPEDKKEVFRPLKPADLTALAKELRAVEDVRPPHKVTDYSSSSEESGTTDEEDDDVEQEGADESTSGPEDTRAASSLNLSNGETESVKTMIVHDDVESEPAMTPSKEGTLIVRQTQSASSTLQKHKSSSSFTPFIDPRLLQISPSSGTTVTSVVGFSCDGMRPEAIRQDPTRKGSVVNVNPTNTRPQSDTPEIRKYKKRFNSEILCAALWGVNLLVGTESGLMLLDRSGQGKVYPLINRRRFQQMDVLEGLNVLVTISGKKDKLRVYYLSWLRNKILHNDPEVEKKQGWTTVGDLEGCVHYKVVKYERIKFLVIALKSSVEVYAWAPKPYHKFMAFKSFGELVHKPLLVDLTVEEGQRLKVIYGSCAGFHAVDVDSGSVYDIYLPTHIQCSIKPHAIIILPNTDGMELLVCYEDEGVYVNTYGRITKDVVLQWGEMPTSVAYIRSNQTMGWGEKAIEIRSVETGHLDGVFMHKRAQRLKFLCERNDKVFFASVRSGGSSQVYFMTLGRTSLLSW

CC(=O)N[C@@H]1CCC[C@H](C(=O)Nc2cc(-c3cnn4c3CCCC4)c(Cl)cn2)C1
Vd [1]: 0.9 L/kg
Drug metabolism [2]: Metabolite_Detected
Drug metabolism [3]: Metabolite_Detected

CC(=O)N[C@@H]1CCC[C@H](C(=O)Nc2cc(-c3cnn4c3CC(C)(C)C4)c(F)cn2)C1
Drug metabolism [4]: Metabolite_Detected
Drug metabolism [5]: Metabolite_Detected
koff (CDK9/cyclin T1): 569 10^-6/s
Drug metabolism [6]: Metabolite_Detected
clearance at 0.25 h [7]: 53 mL/min/kg
inhibition [8]: 92%

CC(=O)N[C@@H]1CCC[C@H](C(=O)Nc2cc(-c3cnn4c3CC(C)(C)C4)c(Cl)cn2)C1 [ZEMIRCICLIB]
Drug metabolism [9]: Metabolite_Detected
IC50 [10]: 187 nM
IC50 [11]: 2800 nM
Vd [12]: 1.3 L/kg
inhibition [13]: 85%
Drug metabolism [14]: Metabolite_Detected
inhibition [15]: 82%
inhibition [16]: Active
Activity (MV4-11): 100%
inhibition [17]: 80%
inhibition [18]: 85%
